For one assay, the system named is MM649 cells. Kind of assay: Calreticulin externalization assay (flow cytometry). The assay is classed as cell-based, human. As to conditions: within 60 minutes of treatment. As for the experimental part: (§1) Calreticulin externalization was determined as previously detailed (Gomez-Cadena et al. 2016). Briefly, cells (A431, MM649, B16-OVA) cultured in complete medium at 37° C., 5% CO2 were detached via trypsinisation, centrifuged at 1,200 rpm and washed ×2 with fresh medium. After an additional round of centrifugation, the resultant cell pellet was resuspended at a concentration of 1×10^6 cells/ml, after which epoxytigliane was added to a final concentration of 500 or 300 μM. Ethanol only controls were also performed. Cell suspensions were incubated at 37° C., 5% CO2 and at the indicated timepoints, 200 μl of sample was removed and incubated with LIVE/DEAD fixable far red stain for 5 mins on ice. Following this, cells were pelleted at 1,200 rpm for 4 mins and washed ×1 with PBS. 500 μl of PBS, 0.25% formaldehyde was then added to each pellet to perform a light fixation without compromising plasma membrane integrity. […]
(§2) Samples were gated by FSC-H v FSC-A first to identify single cells, after which the LIVE/DEAD stain (Ex: 640 nm, Em: 670/14) negative (intact cell) population was analysed for green fluorescence (Ex: 488 nm, Em: 530/30; calreticulin externalization). Mean fluorescence intensity values were subsequently determined and graphed versus time.
A general note: Flow cytometry measures light scatter and fluorescence of single cells or particles in a stream.

In the next assay the test system is A431 cells. The assay is described as above. It is filed as cell-based, human. As to conditions: within 60 minutes of treatment. As for the experimental part:
as §1, §2

The test system of assay [1] is mouse stroma in SK-MEL-28 human melanoma xenografts. In words: Gene expression changes in mouse tumour stroma (Illumina BeadChip). It is filed as in vivo, BALB/c Foxn1nu mouse. As to conditions: 30 μg Compound 1 injected into the tumour. As for the experimental part: The SK-MEL-28 human melanoma cell line was injected subcutaneously (s.c) into 2 sites on the flanks of each BALB/c Foxn1nu mouse (2 million cells/site) and allowed to grow to approximately 7 mm diameter. Each tumour was then injected with 50 μl of 20% propylene glycol containing 30 μg Compound 1 or with 50 μl of 20% propylene glycol. At different times after injection a mouse was euthanased and the tumours harvested, the skin covering removed, and the intact tumours stored at −80° C.
RNA was extracted from 30 mg of frozen tumour using the Qiagen RNeasy Plus Mini Kit, according to manufacturer's instructions, then quantitated with a NanoDrop instrument and integrity confirmed on denaturing agarose gels bearing a 1 kb DNA marker and stained with ethidium bromide.
Approximately 500 ng of total unlabelled RNA was adjusted to a final volume of 11 μl with nuclease-free water. The RNA was incubated with 9 μl of the reverse transcriptase master mix (1 μl of T7 Oligo (dT) Primer, 2 μl of 10× first strand buffer, 4 μl of dNTP mix, 1 μl of RNase inhibitor and 1 μl of ArrayScript) at 42° C. for 2 h. This was followed by the second strand cDNA synthesis step which involved a further incubation at 16° C. for 2 hr with 80 μl of the second strand master mix (63 μL nuclease-free water, 10 μl 10× second strand buffer, 4 μl dNTP mix, 2 μl DNA polymerase and 1 μl RNase H). The cDNA was purified by filtering through a cDNA Filter Cartridge with 250 μl of cDNA binding buffer and washing with 500 μl of the wash buffer provided in the kit. Purified cDNA was eluted with 20 μl of 55° C. nuclease-free water. Each cDNA sample was incubated with 7.5 μl of the IVT master mix (2.5 μl of T7 10× reaction buffer, 2.5 μl of T7 enzyme mix and 2.5 μl biotin-NTP mix) at 37° C. for 16 h. The reaction was stopped with the addition of 75 μl of nuclease-free water to each cRNA sample. The biotinylated, amplified RNA was purified by filtering the cRNA samples through cRNA Filter Cartridges with 350 μL of cRNA binding buffer and 250 μl of 100% ethanol mixed together prior to loading onto the filters. The cRNA filter cartridges with attached RNA were then washed with 650 μl of wash buffer before eluting purified cRNA with 200 μl of 55° C. nuclease-free water.
The cRNA samples were heated at 65° C. for 5 min and collected by pulse centrifugation. After heating at 65° C. for 5 min, approximately 750 ng of the cRNA sample was aliquoted into separate tubes to which were added ˜5 μl of RNase-free water and 10 μl of Hyb Mix. […]
BeadChips were read by the iScan System, and transferred via GenomeStudio into GeneSpring GX v12.5 (Agilent Technologies, Santa Clara, Calif., USA). […] The entities were filtered based on the detection score calculated by GenomeStudio where p≤0.05 was considered significant.

`C/C=C(\C)C(=O)O[C@@H]1[C@@H](C)[C@@]2(O)[C@H]([C@@H]3C(C)(C)[C@]13OC(=O)[C@@H](C)CC)[C@@H]1O[C@]1(CO)[C@@H](O)[C@]1(O)C(=O)C(C)=C[C@H]12` [Compound 1, 12-tigloyl-13-(2-methylbutanoyl)-6,7-epoxy-4,5,9,12,13,20-hexahydroxy-1-tiglien-3-one]: the “calreticulin externalisation (mean fluorescence intensity)” value in the assay with MM649 cells is recorded as “significant increases in mean fluorescence intensity”. Besides, in the assay with A431 cells, the “calreticulin externalisation (mean fluorescence intensity)” value is “significant increases in mean fluorescence intensity”. Besides, in assay [1], the “Cxcl1 expression at the tumour site” value is “heavily upregulated”; the “expression of host cytokines/chemokines important for recruitment/activation of immune cells at the tumour site” value is “upregulated”; the “host gene expression changes associated with a Th-1/M-like response: IFN-γ, TNF, IL-δ and IL-1β” value was “induction”. Further, the “TGF beta signalling (pathway analysis of gene expression)” value in assay [1] (t=8 h) is given as “downregulation”.

The values above are taken from patent US11213506B2, “Combination therapy for the treatment or prevention of tumours” (QBIOTICS PTY LTD, priority 2017, dated 2022).
